{"source": "patent US20120225062A1", "about": "(priority 2011, published 2012)", "key": {"Pim 2": {"target": "Pim 2 (Homo sapiens, UniProt Q9P1W9)", "sequence (Q9P1W9 whole entry)": "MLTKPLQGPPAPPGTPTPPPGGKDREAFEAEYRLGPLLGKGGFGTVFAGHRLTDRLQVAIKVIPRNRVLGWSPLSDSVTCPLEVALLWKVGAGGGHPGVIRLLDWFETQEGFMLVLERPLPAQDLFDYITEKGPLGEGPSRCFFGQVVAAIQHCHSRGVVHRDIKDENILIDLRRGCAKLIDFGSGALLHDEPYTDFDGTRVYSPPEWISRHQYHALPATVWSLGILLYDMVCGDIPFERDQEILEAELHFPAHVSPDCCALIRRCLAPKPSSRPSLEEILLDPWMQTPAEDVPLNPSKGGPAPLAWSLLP", "experiment": "Pim 2 AlphaScreen assay (high ATP)"}, "Pim 3": {"target": "Pim 3 (Homo sapiens, UniProt Q86V86)", "experiment": "Pim 3 AlphaScreen assay (high ATP)", "method": "The activity of Pim 1, Pim 2, & Pim 3 is measured using a homogeneous bead based system quantifying the amount of phosphorylated peptide substrate resulting from kinase-catalyzed phosphoryl transfer to a peptide substrate. Compounds to be tested are dissolved in 100% DMSO and directly distributed to a white 384-well plate at 0.25 μl per well. […] This is followed by the addition of 5 μl/well of Pim 1, Pim 2 or Pim 3 kinase in assay buffer (concentrations described below). Final assay concentrations (described below) are in 2.5% DMSO. The reactions are performed for ˜2 hours, then stopped by the addition of 10 μl of 0.75 μg/ml anti-phospho Ser/Thr antibody (Cell Signaling), 10 μg/ml Protein A AlphaScreen beads (Perkin Elmer), and 10 μg/ml streptavidin coated AlphaScreen beads in stop/detection buffer (50 mM EDTA, 95 mM Tris, pH=7.5, 0.01% Tween-20). The stopped reactions are incubated overnight in the dark. The phosphorylated peptide is detected via an oxygen anion initiated chemiluminescence/fluorescence cascade using the Envision plate reader (Perkin Elmer)."}, "[1]": {"test_system": "KMS11 (human myeloma cell line)", "experiment": "Cell Proliferation Assay (CellTiter-Glo, 3 days)", "assay_type": "cell-based", "conditions": "KMS-11, 72 h, KMS11-luc cells", "summary_of_the_method": "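KMS11 myeloma cells, 2000 per well in IMDM with 10% FBS, exposed to compound for 3 days at 37° C. Viability read by CellTiter-Glo luminescence; EC50 derived.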"}, "Pim 1": {"target": "Pim 1 (Homo sapiens, UniProt P11309)", "sequence (P11309 whole entry)": "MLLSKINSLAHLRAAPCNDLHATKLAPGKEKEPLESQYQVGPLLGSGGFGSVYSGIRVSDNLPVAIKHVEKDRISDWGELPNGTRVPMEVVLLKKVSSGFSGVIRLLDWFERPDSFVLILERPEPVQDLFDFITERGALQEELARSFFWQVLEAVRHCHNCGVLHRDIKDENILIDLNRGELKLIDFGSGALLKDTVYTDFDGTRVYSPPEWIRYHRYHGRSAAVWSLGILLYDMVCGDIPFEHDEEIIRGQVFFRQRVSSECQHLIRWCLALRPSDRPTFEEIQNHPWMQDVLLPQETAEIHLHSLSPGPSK", "experiment": "Pim 1 AlphaScreen assay (high ATP)"}}}
{"compound": "COCCOc1ccc(F)c(-c2nc(C(=O)Nc3cnccc3[C@@H]3C[C@H](C)C[C@H](N)C3)ccc2F)c1F", "note": "[Example 13, N-(4-((1R,3S,5S)-3-amino-5-methylcyclohexyl)pyridin-3-yl)-6-(2,6-difluoro-3-(2-methoxyethoxy)phenyl)-5-fluoropicolinamide]", "values": [{"measurement": "IC50", "setting": "Pim 2", "result": 9.36, "unit": "nM"}, {"measurement": "IC50", "setting": "Pim 3", "result": 1.27, "unit": "nM"}, {"measurement": "EC50", "setting": "[1]", "result": 187, "unit": "nM"}, {"measurement": "IC50", "setting": "Pim 1", "result": 0.04, "unit": "nM"}]}
{"compound": "C[C@H]1C[C@@H](c2ccncc2NC(=O)c2cccc(-c3c(F)cc(N4CCOCC4)cc3F)n2)C[C@@H](N)[C@@H]1O", "note": "[Example 191, N-(4-((1R,3R,4R,5S)-3-amino-4-hydroxy-5-methylcyclohexyl)pyridin-3-yl)-6-(2,6-difluoro-4-morpholinophenyl)picolinamide]", "values": [{"measurement": "IC50", "setting": "Pim 2", "result": 2.31, "unit": "nM"}, {"measurement": "IC50", "setting": "Pim 3", "result": 0.52, "unit": "nM"}, {"measurement": "EC50", "setting": "[1]", "result": 263, "unit": "nM"}, {"measurement": "IC50", "setting": "Pim 1", "result": 0.02, "unit": "nM"}]}
{"compound": "C=Cc1ccc(F)c(-c2nc(C(=O)Nc3cnccc3[C@H]3C[C@@H](N)[C@H](O)[C@@H](C)C3)ccc2F)c1F", "note": "[Example 193, N-(4-((1R,3R,4R,5S)-3-amino-4-hydroxy-5-methylcyclohexyl)pyridin-3-yl)-6-(2,6-difluoro-3-vinylphenyl)-5-fluoropicolinamide]", "values": [{"measurement": "IC50", "setting": "Pim 2", "result": 31.8, "unit": "nM"}, {"measurement": "IC50", "setting": "Pim 3", "result": 10.2, "unit": "nM"}, {"measurement": "EC50", "setting": "[1]", "result": 1850, "unit": "nM"}, {"measurement": "IC50", "setting": "Pim 1", "result": 0.47, "unit": "nM"}]}
{"compound": "C[C@@H]1C[C@H](N)C[C@H](c2ccncc2NC(=O)c2nc(-c3c(F)cc(C(C)(C)O)cc3F)c(F)cc2N)C1", "note": "[Example 100, 3-amino-N-(4-((1R,3S,5S)-3-amino-5-methylcyclohexyl)pyridin-3-yl)-6-(2,6-difluoro-4-(2-hydroxypropan-2-yl)phenyl)-5-fluoropicolinamide]", "values": [{"measurement": "IC50", "setting": "Pim 2", "result": 0.53, "unit": "nM"}, {"measurement": "IC50", "setting": "Pim 3", "result": 0.13, "unit": "nM"}, {"measurement": "EC50", "setting": "[1]", "result": 12, "unit": "nM"}, {"measurement": "IC50", "setting": "Pim 1", "result": 0.01, "unit": "nM"}]}
{"compound": "CCOCc1cc(F)c(-c2nc(C(=O)Nc3cnccc3[C@H]3C[C@@H](N)[C@H](O)[C@@H](C)C3)ccc2F)c(F)c1", "note": "[Example 83, N-(4-((1R,3R,4R,5S)-3-amino-4-hydroxy-5-methylcyclohexyl)pyridin-3-yl)-6-(4-(ethoxymethyl)-2,6-difluorophenyl)-5-fluoropicolinamide]", "values": [{"measurement": "IC50", "setting": "Pim 2", "result": 2.43, "unit": "nM"}, {"measurement": "IC50", "setting": "Pim 3", "result": 1.33, "unit": "nM"}, {"measurement": "EC50", "setting": "[1]", "result": 166, "unit": "nM"}, {"measurement": "IC50", "setting": "Pim 1", "result": 0.04, "unit": "nM"}]}
{"compound": "C[C@@H]1C[C@H](N)C[C@H](c2ccncc2NC(=O)c2ccc(F)c(-c3c(F)cc([C@H](O)CO)cc3F)n2)C1", "note": "[Example 231, N-(4-((1R,3S,5S)-3-amino-5-methylcyclohexyl)pyridin-3-yl)-6-(4-((S)-1,2-dihydroxyethyl)-2,6-difluorophenyl)-5-fluoropicolinamide]", "values": [{"measurement": "IC50", "setting": "Pim 2", "result": 2.6, "unit": "nM"}, {"measurement": "IC50", "setting": "Pim 3", "result": 1.53, "unit": "nM"}, {"measurement": "EC50", "setting": "[1]", "result": 46, "unit": "nM"}, {"measurement": "IC50", "setting": "Pim 1", "result": 0.04, "unit": "nM"}]}
{"compound": "C[C@@H]1C[C@H](N)C[C@H](c2ccncc2NC(=O)c2cccc(-c3c(F)cc(C4(F)CCOCC4)cc3F)n2)C1", "note": "[Example 190, N-(4-((1R,3S,5S)-3-amino-5-methylcyclohexyl)pyridin-3-yl)-6-(2,6-difluoro-4-(4-fluorotetrahydro-2H-pyran-4-yl)phenyl)picolinamide]", "values": [{"measurement": "IC50", "setting": "Pim 2", "result": 3.26, "unit": "nM"}, {"measurement": "IC50", "setting": "Pim 3", "result": 2.9, "unit": "nM"}, {"measurement": "EC50", "setting": "[1]", "result": 402, "unit": "nM"}, {"measurement": "IC50", "setting": "Pim 1", "result": 0.05, "unit": "nM"}]}
{"compound": "Cc1cc(F)c(-c2nc(C(=O)Nc3cnccc3[C@H]3C[C@@H](N)[C@H](O)[C@@H](C)C3)c(N)cc2F)c(F)c1", "note": "[Example 219, 3-amino-N-(4-((1R,3R,4R,5S)-3-amino-4-hydroxy-5-methylcyclohexyl)pyridin-3-yl)-6-(2,6-difluoro-4-methylphenyl)-5-fluoropicolinamide]", "values": [{"measurement": "IC50", "setting": "Pim 2", "result": 2.01, "unit": "nM"}, {"measurement": "IC50", "setting": "Pim 3", "result": 0.65, "unit": "nM"}, {"measurement": "EC50", "setting": "[1]", "result": 23, "unit": "nM"}, {"measurement": "IC50", "setting": "Pim 1", "result": 0.03, "unit": "nM"}]}
{"compound": "C[C@H]1C[C@@H](c2ccncc2NC(=O)c2ccc(F)c(-c3c(F)cc(OC4COC4)cc3F)n2)C[C@@H](N)[C@@H]1O", "note": "[Example 47, N-(4-((1R,3R,4R,5S)-3-amino-4-hydroxy-5-methylcyclohexyl)pyridin-3-yl)-6-(2,6-difluoro-4-(oxetan-3-yloxy)phenyl)-5-fluoropicolinamide]", "values": [{"measurement": "IC50", "setting": "Pim 2", "result": 6.33, "unit": "nM"}, {"measurement": "IC50", "setting": "Pim 3", "result": 1.32, "unit": "nM"}, {"measurement": "EC50", "setting": "[1]", "result": 97, "unit": "nM"}, {"measurement": "IC50", "setting": "Pim 1", "result": 0.04, "unit": "nM"}]}
